Reference: patent EP4763868A1, “RECOMBINANT PTH FUSION PROTEIN, CONSTRUCTION METHOD THEREFOR, AND APPLICATION THEREOF” (KANGZHONG (GUANGDONG) INC., priority 2024, dated 2025)

T1: PTHR1 on UMR-106 cells (UniProt P25961 27-591, limits assumed)
T1 sequence (looked up): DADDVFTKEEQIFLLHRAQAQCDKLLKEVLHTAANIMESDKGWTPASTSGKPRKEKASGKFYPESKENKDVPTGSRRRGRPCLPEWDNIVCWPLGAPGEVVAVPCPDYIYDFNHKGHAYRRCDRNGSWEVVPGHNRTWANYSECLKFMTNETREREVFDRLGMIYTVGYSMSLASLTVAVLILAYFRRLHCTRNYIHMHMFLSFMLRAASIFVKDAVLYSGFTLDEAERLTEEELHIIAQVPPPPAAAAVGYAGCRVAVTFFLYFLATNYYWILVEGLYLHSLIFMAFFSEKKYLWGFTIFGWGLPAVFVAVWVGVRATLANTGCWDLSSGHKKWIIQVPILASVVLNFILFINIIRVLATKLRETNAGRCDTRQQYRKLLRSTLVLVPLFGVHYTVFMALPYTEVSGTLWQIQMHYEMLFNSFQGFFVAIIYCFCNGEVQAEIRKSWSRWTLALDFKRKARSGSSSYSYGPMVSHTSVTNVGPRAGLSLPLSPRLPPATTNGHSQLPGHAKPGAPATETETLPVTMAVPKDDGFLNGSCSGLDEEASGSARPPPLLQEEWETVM


What was measured:
[1] = cited from earlier work
PTHR1 on UMR-106 cells = biological target: T1, PTHR1 on UMR-106 cells; assay: cell-based or functional assay

Row | Molecule | EC50, biological activity (pGL4.29 reporter, fluorescence intensity) (PTHR1 on UMR-106 cells) | further results
1 | CC[C@H](C)[C@H](NC(=O)[C@H](CCC(=O)O)NC(=O)[C@H](CO)NC(=O)[C@@H](NC(=O)[C@@H](N)CO)C(C)C)C(=O)N[C@@H](CCC(N)=O)C(=O)N[C@@H](CC(C)C)C(=O)N[C@@H](CCSC)C(=O)N[C@@H](Cc1cnc[nH]1)C(=O)N[C@@H](CC(N)=O)C(=O)N[C@@H](CC(C)C)C(=O)NCC(=O)N[C@@H](CCCCN)C(=O)N[C@@H](Cc1cnc[nH]1)C(=O)N[C@@H](CC(C)C)C(=O)N[C@@H](CC(N)=O)C(=O)N[C@@H](CO)C(=O)N[C@@H](CCSC)C(=O)N[C@@H](CCC(=O)O)C(=O)N[C@@H](CCCN=C(N)N)C(=O)N[C@H](C(=O)N[C@@H](CCC(=O)O)C(=O)N[C@@H](Cc1c[nH]c2ccccc12)C(=O)N[C@@H](CC(C)C)C(=O)N[C@@H](CCCN=C(N)N)C(=O)N[C@@H](CCCCN)C(=O)N[C@@H](CCCCN)C(=O)N[C@@H](CC(C)C)C(=O)N[C@@H](CCC(N)=O)C(=O)N[C@@H](CC(=O)O)C(=O)N[C@H](C(=O)N[C@@H](Cc1cnc[nH]1)C(=O)N[C@@H](CC(N)=O)C(=O)N[C@@H](Cc1ccccc1)C(=O)O)C(C)C)C(C)C [TP(PTH(1-34)), teriparatide] | – | half-life ([1]; human, in vivo): 30 min
2 | triple-ECD-binding fusion protein T002G-K | 61.4 pM | –
3 | Transcon PTH(1-34): polyethylene glycol (PEG)-conjugated prodrug of PTH(1-34) by Ascendis Pharma A/S | – | time for which serum calcium is maintained at normal physiological levels ([1]; patients, after administration): ≤ 24 hours
4 | human serum albumin nanobody NbHSA (VHH) VHH: QVQLVESGGGLVQTGGSLRLSCAASGSTLVGHSVGFFRQAPGKEREPVVCISSTETVMYYTNSVKGRFTISRDNAKNTVWLQMDRLAPEDTAVYYCAARPQLCSALDYRYNSWGPGTQVTVSS | 0 pM | –
